Assays:
Type in all cases: in vivo
[1] = system: Erysiphe graminis tritici (powdery mildew); test: Greenhouse Test 1, foliar spray fungicide screen (POWD MDEW), host wheat; conditions: disease control rating, 400 ppm (+++ at 100 ppm)
[2] = system: Pyricularia oryzae (rice blast); conditions: disease control rating, foliar spray, host rice; 400 ppm (+++ at 100 ppm)
[3] = system: Puccinia recondita tritici (leaf rust); test: Greenhouse Test 1, foliar spray fungicide screen (LEAF RUST), host wheat; conditions: disease control rating, 400 ppm (+++ at 100 ppm)
[4] = system: Botrytis cinerea (gray mold); test: Greenhouse Test 1, foliar spray fungicide screen (GRAY MOLD), host grape berries; conditions: disease control rating, 400 ppm (+++ at 100 ppm)
[5] = system: Pseudoperonospora cubensis (downy mildew); test: Greenhouse Test 1, foliar spray fungicide screen (DOWN MDEW), host squash; conditions: disease control rating, 400 ppm (+++ at 100 ppm)
[6] = system: Cercospora beticola (leaf spot); test: Greenhouse Test 1, foliar spray fungicide screen (LEAF SPOT), host sugar beet; conditions: disease control rating, 400 ppm (+++ at 100 ppm)
[7] = system: Venturia inaequalis (apple scab); test: Greenhouse Test 1, foliar spray fungicide screen (APPL SCAB), host apple seedling; conditions: disease control rating, 400 ppm (+++ at 100 ppm)
[8] = system: Septoria tritici (leaf blotch); test: Greenhouse Test 1, foliar spray fungicide screen (LEAF BLOT), host wheat; conditions: disease control rating, 400 ppm (+++ at 100 ppm)
[9] = system: Southern corn rootworm (Diabrotica undecimpuctata howardi Barber); test: Mite/insect screen, soil treatment (CRW); conditions: Diabrotica, percent mortality, soil treatment, read-out: CRW RESULTS %; for mortality at 12 ppm: CRW rate 12.00 ppm; for mortality at 24 ppm: CRW rate 24.00 ppm
In short: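 Compounds dissolved in acetone/alcohol (50:50) with Toximul R/S emulsifiers, diluted with water. Soil (15 g, with presoaked corn seed) treated with 1 mL test solution, dried 6–12 h, then five 2–3 instar larvae added; held at 23°C. Percent mortality and phytotoxicity scored after standard exposure periods.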

[10] = system: southern armyworm (Spodopetra eridania Cramer); test: Mite/insect screen, sprayed squash leaves (SAW); conditions: Spodoptera eridania, percent mortality, read-out: SAW RESULTS %; for mortality at 200 ppm: spray rate 200 ppm; for mortality at 400 ppm: spray rate 400 ppm
In short: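 Compounds dissolved in acetone/alcohol with TOXIMUL R/S emulsifiers, diluted with water to test concentrations, and sprayed to runoff on both leaf surfaces at 10 psi, then dried 1 h. Excised treated squash leaves given southern armyworm larvae; aphid and spider mite tests on sprayed squash cotyledons. Percent mortality and phytotoxicity scored after standard exposure.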

[11] = system: Twospotted spider mites (Tetranychus urticae Koch); test: Mite/insect screen, sprayed squash cotyledons (SM); conditions: Tetranychus urticae, percent mortality, read-out: SM RESULTS %; for mortality at 200 ppm: spray rate 200 ppm; for mortality at 400 ppm: spray rate 400 ppm
In short: (§1)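 Steps: formulate compound in acetone/alcohol 50:50 carrying emulsifiers; dilute with water; spray leaves until runoff on upper and lower surfaces; air-dry one hour; for armyworm, excise two […] leaves into a dish of larvae; after exposure, score mortality and plant injury.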

[12] = system: melon aphids (Aphis gossypii Glover); test: Mite/insect screen, sprayed squash cotyledons (MA); conditions: Aphis gossypii, percent mortality, read-out: MA RESULTS %; for mortality at 200 ppm: spray rate 200 ppm; for mortality at 400 ppm: spray rate 400 ppm
In short: as §1

Row | SMILES | POWD MDEW [1] | RICE BLAST [2] | LEAF RUST [3] | GRAY MOLD [4] | DOWN MDEW [5] | LEAF SPOT [6] | APPL SCAB [7] | LEAF BLOT [8] | mortality at 12 ppm [9] | mortality at 200 ppm [10] | mortality at 200 ppm [11] | mortality at 200 ppm [12] | mortality at 24 ppm [9] | mortality at 400 ppm [10] | mortality at 400 ppm [11] | mortality at 400 ppm [12]
1 | c1ccc(CCCNc2nc(NCCCc3ccccc3)c3ccccc3n2)cc1 [Example 24, N,N'-bis(3-phenylpropyl)-2,4-quinazolinediamine] | + (+ = 20-89% control at 400 ppm) | + (+ = 20-89% control at 400 ppm) | + (+ = 20-89% control at 400 ppm) | - (- = 0-19% control at 400 ppm) | +++ (+++ = 90-100% control at 100 ppm) | - (- = 0-19% control at 400 ppm) | - (- = 0-19% control at 400 ppm) | - (- = 0-19% control at 400 ppm) | 0% | 0% | 0% | 0% | – | – | – | –
2 | COc1ccccc1CCNc1nc(NCCc2ccccc2OC)c2ccccc2n1 [Example 25, N,N'-bis[2-(2-methoxyphenyl)ethyl]-2,4-quinazolinediamine] | - (- = 0-19% control at 400 ppm) | + (+ = 20-89% control at 400 ppm) | + (+ = 20-89% control at 400 ppm) | – | ++ (++ = 90-100% control at 400 ppm) | - (- = 0-19% control at 400 ppm) | - (- = 0-19% control at 400 ppm) | - (- = 0-19% control at 400 ppm) | 0% | 0% | 0% | 0% | – | – | – | –
3 | CC(Cc1ccccc1)Nc1nc(NC(C)Cc2ccccc2)c2ccccc2n1 (stereo not drawn) [Example 26, N,N'-bis(1-methyl-2-phenylethyl)-2,4-quinazolinediamine] | - (- = 0-19% control at 400 ppm) | ++ (++ = 90-100% control at 400 ppm) | ++ (++ = 90-100% control at 400 ppm) | - (- = 0-19% control at 400 ppm) | +++ (+++ = 90-100% control at 100 ppm) | + (+ = 20-89% control at 400 ppm) | - (- = 0-19% control at 400 ppm) | + (+ = 20-89% control at 400 ppm) | 0% | 0% | 0% | 0% | – | – | – | –
4 | CC(CNc1nc(NCC(C)c2ccccc2)c2ccccc2n1)c1ccccc1 (stereo not drawn) [Example 27, N,N'-bis(2-phenylpropyl)-2,4-quinazolinediamine] | - (- = 0-19% control at 400 ppm) | + (+ = 20-89% control at 400 ppm) | + (+ = 20-89% control at 400 ppm) | - (- = 0-19% control at 400 ppm) | +++ (+++ = 90-100% control at 100 ppm) | - (- = 0-19% control at 400 ppm) | - (- = 0-19% control at 400 ppm) | + (+ = 20-89% control at 400 ppm) | 0% | 0% | 0% | 0% | – | – | – | –
5 | Cc1ccc(CCNc2nc(NCCc3ccc(C)cc3)c3ccccc3n2)cc1 [Example 28, N,N'-bis[2-(4-methylphenyl)ethyl]-2,4-quinazolinediamine] | - (- = 0-19% control at 400 ppm) | + (+ = 20-89% control at 400 ppm) | ++ (++ = 90-100% control at 400 ppm) | - (- = 0-19% control at 400 ppm) | + (+ = 20-89% control at 400 ppm) | - (- = 0-19% control at 400 ppm) | - (- = 0-19% control at 400 ppm) | - (- = 0-19% control at 400 ppm) | 0% | 0% | 0% | 0% | – | – | – | –
6 | c1ccc(CCCc2ncnc3ccccc23)cc1 [Example 29, 4-(3-phenylpropyl)quinazoline] | + (+ = 20-89% control at 400 ppm) | +++ (+++ = 90-100% control at 100 ppm) | ++ (++ = 90-100% control at 400 ppm) | - (- = 0-19% control at 400 ppm) | ++ (++ = 90-100% control at 400 ppm) | - (- = 0-19% control at 400 ppm) | + (+ = 20-89% control at 400 ppm) | - (- = 0-19% control at 400 ppm) | – | – | – | – | 0% | 0% | 80% | 80%
7 | Fc1cccc2c(NCCc3ccc4ccccc4c3)ncnc12 [Example 31, 8-fluoro-N-[2-(2-naphthyl)ethyl]-4-quinazolinamine] | + (+ = 20-89% control at 400 ppm) | +++ (+++ = 90-100% control at 100 ppm) | +++ (+++ = 90-100% control at 100 ppm) | - (- = 0-19% control at 400 ppm) | ++ (++ = 90-100% control at 400 ppm) | + (+ = 20-89% control at 400 ppm) | - (- = 0-19% control at 400 ppm) | +++ (+++ = 90-100% control at 100 ppm) | 0% | 80% | 0% | 40% | 0% | 30% | 0% | 0%
8 | c1ccc(Oc2cccc(CCNc3ncnc4ccccc34)c2)cc1 [Example 38, N-[2-(3-phenoxyphenyl)ethyl]-4-quinazolinamine] | ++ (++ = 90-100% control at 400 ppm) | +++ (+++ = 90-100% control at 100 ppm) | +++ (+++ = 90-100% control at 100 ppm) | - (- = 0-19% control at 400 ppm) | +++ (+++ = 90-100% control at 100 ppm) | + (+ = 20-89% control at 400 ppm) | + (+ = 20-89% control at 400 ppm) | ++ (++ = 90-100% control at 400 ppm) | 0% | 40% | 0% | 0% | 100% | 40% | 90% | 80%
9 | c1csc(CCOc2ncnc3ccccc23)c1 [Example 54, 4-[2-(2-thienyl)ethoxy]quinazoline] | ++ (++ = 90-100% control at 400 ppm) | ++ (++ = 90-100% control at 400 ppm) | ++ (++ = 90-100% control at 400 ppm) | - (- = 0-19% control at 400 ppm) | ++ (++ = 90-100% control at 400 ppm) | + (+ = 20-89% control at 400 ppm) | + (+ = 20-89% control at 400 ppm) | + (+ = 20-89% control at 400 ppm) | 0% | 0% | 0% | 0% | – | – | – | –
10 | CC(=O)N(CCc1ccc2ccccc2c1)c1ncnc2ccccc12 [Example 81, N-[2-(2-naphthyl)ethyl]-N-4-quinazolinylacetamide] | + (+ = 20-89% control at 400 ppm) | ++ (++ = 90-100% control at 400 ppm) | + (+ = 20-89% control at 400 ppm) | - (- = 0-19% control at 400 ppm) | + (+ = 20-89% control at 400 ppm) | - (- = 0-19% control at 400 ppm) | + (+ = 20-89% control at 400 ppm) | - (- = 0-19% control at 400 ppm) | 0% | 0% | 50% | 0% | 0% | 0% | 0% | 0%
11 | Fc1ccc(CCOc2ncnc3ccccc23)cc1 [Example 84, 4-[2-(4-fluorophenyl)ethoxy]quinazoline] | ++ (++ = 90-100% control at 400 ppm) | ++ (++ = 90-100% control at 400 ppm) | +++ (+++ = 90-100% control at 100 ppm) | - (- = 0-19% control at 400 ppm) | ++ (++ = 90-100% control at 400 ppm) | - (- = 0-19% control at 400 ppm) | ++ (++ = 90-100% control at 400 ppm) | + (+ = 20-89% control at 400 ppm) | 0% | 0% | 0% | 0% | 40% | 0% | 0% | 0%

— patent EP0326329B1, “Quinazoline derivatives useful as insecticides” (Dow AgroSciences LLC, priority 1988, dated 1989)
